In patent publication US8115014B2, “Ethynylindole compounds” (ONO Pharmaceuticals, Co., Ltd., priority 2008, dated 2012):

Key:
human cysLT2 receptor = biological target: T1, human cysLT2 receptor (Homo sapiens, UniProt Q9NS75); experiment: Effects of compounds on LTD4-induced increases in intracellular calcium levels, HEK293 cells expressing the human cysLT2 receptor; assay type: cell-based; details: 100 nM LTD4, compound applied 30 minutes prior, read-out: IC50 (50% inhibitory concentration), LTD4-induced intracellular calcium influx
T1 construct: expressed in transfected cells; host or cells: HEK293 cells
T1 sequence (Q9NS75 1-346): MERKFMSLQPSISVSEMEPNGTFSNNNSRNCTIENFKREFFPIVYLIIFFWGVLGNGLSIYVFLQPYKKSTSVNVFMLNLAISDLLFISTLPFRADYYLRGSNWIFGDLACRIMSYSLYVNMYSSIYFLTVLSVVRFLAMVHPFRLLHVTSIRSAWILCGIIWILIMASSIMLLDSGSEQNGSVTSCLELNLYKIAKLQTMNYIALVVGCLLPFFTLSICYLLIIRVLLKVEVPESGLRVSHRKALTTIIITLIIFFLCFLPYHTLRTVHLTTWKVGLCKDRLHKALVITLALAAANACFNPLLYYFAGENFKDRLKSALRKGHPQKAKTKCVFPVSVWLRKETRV
Procedure: (§1) The cells were incubated in the culture medium containing 7.5 μM Fura2-AM, 20 mM 2-[4-(2-hydroxyethyl)-1-piperazinyl]ethanesulfonic acid (HEPES) and 2.5 mM probenecid, at 37° C. for about 60 minutes. The Fura2-AM-loaded cells were washed once with assay buffer (Hank's buffer containing 20 mM HEPES), and the LTD4-induced intracellular calcium influx was measured using a FDSS2000 (manufactured by Hamamatsu Photonics K.K.). The compounds of the present invention were applied 30 minutes prior to LTD4 stimulation, and time-course changes of the response provoked by 100 nM of LTD4 was measured over 150 seconds.

human cysLT1 receptor = biological target: T2, human cysLT1 receptor (Homo sapiens, UniProt Q9Y271); experiment: Effects of compounds on LTD4-induced increase in intracellular calcium levels, CHO cells expressing the human cysLT1 receptor; assay type: cell-based; details: 100 nM LTD4, compound applied 30 minutes prior, read-out: IC50 (50% inhibitory concentration), LTD4-induced intracellular calcium influx
T2 construct: expressed in transfected cells; host or cells: Chinese hamster ovary (CHO) cells
T2 sequence (Q9Y271 1-337): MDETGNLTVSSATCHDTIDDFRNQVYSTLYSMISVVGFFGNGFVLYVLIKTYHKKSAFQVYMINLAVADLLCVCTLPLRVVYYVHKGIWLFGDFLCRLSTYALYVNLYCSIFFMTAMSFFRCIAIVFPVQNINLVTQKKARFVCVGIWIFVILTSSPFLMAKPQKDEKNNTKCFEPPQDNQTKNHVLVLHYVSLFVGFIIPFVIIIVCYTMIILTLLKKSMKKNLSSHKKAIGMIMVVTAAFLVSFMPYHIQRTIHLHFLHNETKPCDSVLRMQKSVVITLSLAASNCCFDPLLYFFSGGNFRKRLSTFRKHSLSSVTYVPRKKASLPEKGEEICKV
Procedure: as §1, with “Chinese hamster ovary (CHO) cells expressing the human cysLT1 receptor were seeded at a density of 0.4×10^5 cells/well into a 96-well plate and cultured in an F-12 medium at 37° C. in the presence of 5% CO2 for 24 hours. The cells” for “The cells”

| Structure (SMILES) | IC50 (human cysLT2 receptor) [nM] | IC50 (human cysLT1 receptor) [nM] |
| --- | --- | --- |
| Cc1c(CCCC(=O)O)c2cccc(C#Cc3ccc(OCCCCc4c(F)c(F)c(F)c(F)c4F)cc3)c2n1CCCC(=O)O [Example 9, 4,4′-[2-methyl-7-({4-[4-(pentafluorophenyl)butoxy]phenyl}ethynyl)-1H-indole-1,3-diyl]dibutanoic Acid] | 2.8 | 1.1 |
| Cc1c(F)cccc1CCCCOc1ccc(C#Cc2cccc3c(CC4(CC(=O)O)CC4)c(C)n(CC(=O)O)c23)cc1 [Example 21 (2), [3-{[1-(carboxymethyl)cyclopropyl]methyl}-7-({4-[4-(3-fluoro-2-methylphenyl)butoxy]phenyl}ethynyl)-2-methyl-1H-indol-1-yl]acetic Acid] | 2.9 | 0.24 |
| Cc1c(Cl)cccc1CCCCOc1ccc(C#Cc2cccc3c(CC4(CC(=O)O)CC4)c(C)n(CC(=O)O)c23)cc1 [Example 21 (1), (1-{[1-(carboxymethyl)-7-({4-[4-(3-chloro-2-methylphenyl)butoxy]phenyl}ethynyl)-2-methyl-1H-indol-3-yl]methyl}cyclopropyl)acetic Acid] | 2.1 | 0.16 |
| Cc1c(CCCC(=O)O)c2cccc(C#Cc3ccc(OCCCCc4cc(F)c(F)c(F)c4F)cc3)c2n1CC(=O)O [Example 11, 4-[1-(carboxymethyl)-2-methyl-7-({4-[4-(2,3,4,5-tetrafluorophenyl)butoxy]phenyl}ethynyl)-1H-indol-3-yl]butanoic Acid] | 0.77 | 0.21 |
